Experimental findings from US20240228488A1 (TAKEDA PHARMACEUTICAL COMPANY LIMITED, priority 2021, published 2024) are described below.

Sequence of human activated kallikrein enzyme (P03952 391-638 limits assumed): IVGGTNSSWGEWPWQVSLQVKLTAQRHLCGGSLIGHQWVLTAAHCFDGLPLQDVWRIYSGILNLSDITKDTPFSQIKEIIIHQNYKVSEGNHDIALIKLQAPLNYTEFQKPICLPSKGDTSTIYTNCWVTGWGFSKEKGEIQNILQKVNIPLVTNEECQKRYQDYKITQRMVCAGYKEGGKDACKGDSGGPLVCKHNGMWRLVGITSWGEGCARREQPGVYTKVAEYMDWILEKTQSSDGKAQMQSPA
Sequence of human activated kallikrein enzyme (P03952 20-390 partner limits assumed): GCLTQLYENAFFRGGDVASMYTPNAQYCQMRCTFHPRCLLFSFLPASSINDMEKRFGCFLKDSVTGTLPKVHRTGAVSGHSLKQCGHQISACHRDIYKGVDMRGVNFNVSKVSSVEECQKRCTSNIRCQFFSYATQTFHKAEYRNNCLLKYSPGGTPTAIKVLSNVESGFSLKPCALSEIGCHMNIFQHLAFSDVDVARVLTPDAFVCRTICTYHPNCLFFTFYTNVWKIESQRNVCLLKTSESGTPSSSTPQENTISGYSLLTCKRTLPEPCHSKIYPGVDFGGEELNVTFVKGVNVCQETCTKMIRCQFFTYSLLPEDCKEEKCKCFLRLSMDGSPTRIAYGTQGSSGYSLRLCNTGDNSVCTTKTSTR

In the assay the target is human activated kallikrein enzyme (Homo sapiens, UniProt P03952). The assay can be described thus: Plasma kallikrein inhibition, fluorogenic PFR-AMC substrate, 500 pM activated kallikrein format. It is filed as biochemical. The following applies: 500 pM activated kallikrein, 300 uM PFR-AMC, 30 min preincubation, 10 min reaction; read-out: Primary Dose Response Assay: Average EC50. A digest of the protocol:
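Enzyme at 500 pM preincubated 30 min RT with inhibitors in 20 mM Tris pH 7.5, 1 mM EDTA, 150 mM NaCl, 0.1% PEG-400, 0.1% Triton X-100. Reaction started with 300 uM PFR-AMC, run 10 min RT; fluorescence read at 460 nm emission, 380 nm excitation. EC50 reported in ranges.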
For orientation: EC50 means the concentration that produces a half-maximal response. As to `O=C(Nc1cc(NCc2cn3cc(C4CC4)ccc3n2)ncn1)[C@H]1[C@H](F)[C@@H]1c1cccc(Cl)c1` (racemic) [Example 511, rac-(1R*,2R*,3S*)-2-(3-chlorophenyl)-N-(6-(((6-cyclopropylimidazo[1,2-a]pyridin-2-yl)methyl)amino)pyrimidin-4-yl)-3-fluorocyclopropane-1-carboxamide], the EC50 was in the range of 1 to 10 nM.

Take `O=C(Nc1cc(NCc2cn3cc(C4CC4)ccc3n2)ccn1)[C@@H]1C[C@]12C(=O)Nc1ccc(Cl)cc12` (racemic) [Example 514, rac-(1R*,2S*)-5′-chloro-N-(4-(((6-cyclopropylimidazo[1,2-a]pyridin-2-yl)methyl)amino)pyridin-2-yl)-2′-oxospiro[cyclopropane-1,3′-indoline]-2-carboxamide]: the EC50 was in the range of 10 to 100 nM.

Regarding `Cc1ccnc([C@H]2C[C@]2(F)C(=O)Nc2cc(N[C@H](C)c3cn4cc(C5CC5)cc(N5CC(=O)N(C)C5=O)c4n3)nc(C)n2)n1` (racemic) [Example 528, rac-(1S*,2S*)-N-(6-(((R)-1-(6-cyclopropyl-8-(3-methyl-2,4-dioxoimidazolidin-1-yl)imidazo[1,2-a]pyridin-2-yl)ethyl)amino)-2-methylpyrimidin-4-yl)-1-fluoro-2-(4-methylpyrimidin-2-yl)cyclopropane-1-carboxamide], the concentration for a half-maximal effect (EC50) lay within 1 to 10 nM.

As to `N#Cc1cc(C2CC2)cn2cc(COc3ccnc(NC(=O)[C@H]4C[C@@H]4c4cccc(Cl)c4)c3)nc12` (racemic) [Example 567, rac-(1S*,2S*)-2-(3-chlorophenyl)-N-(4-((8-cyano-6-cyclopropylimidazo[1,2-a]pyridin-2-yl)methoxy)pyridin-2-yl)cyclopropane-1-carboxamide], the EC50 was 10 to 100 nM.

As for `NCc1cc(C2CC2)cn2cc(COc3ccnc(NC(=O)[C@H]4C[C@@H]4c4cccc(Cl)c4)c3)nc12` (racemic) [Example 572, rac-(1S*,2S*)—N-(4-((8-(aminomethyl)-6-cyclopropylimidazo[1,2-a]pyridin-2-yl)methoxy)pyridin-2-yl)-2(3-chlorophenyl)cyclopropane-1-carboxamide], the EC50 was in the range of 1 to 10 nM.

Consider `Cc1ccnc([C@H]2C[C@@H]2C(=O)Nc2nccc3nn(Cc4cn5cc(C6CC6)cc(N6CC(=O)N(C)C6=O)c5n4)cc23)n1` (racemic) [Example 576, rac-(1S*,2S*)—N-(2-((6-cyclopropyl-8-(3-methyl-2,4-dioxoimidazolidin-1-yl)imidazo[1,2-a]pyridin-2-yl)methyl)-2H-pyrazolo[4,3-c]pyridin-4-yl)-2-(4-methylpyrimidin-2-yl)cyclopropane-1-carboxamide], for which the EC50 is under 1 nM.

`O=C(Nc1nccc2nn(Cc3cn4cc(C5CC5)ccc4n3)cc12)[C@H]1C[C@@H]1c1cc(Cl)ccc1[N+](=O)[O-]` (racemic) [Example 578, rac-(1S*,2S*)-2-(5-chloro-2-nitrophenyl)-N-(2-((6-cyclopropylimidazo[1,2-a]pyridin-2-yl)methyl)-2H-pyrazolo[4,3-c]pyridin-4-yl)cyclopropane-1-carboxamide]: the EC50 was in the range of 1 to 10 nM.

As to `N#Cc1ccc(Cl)cc1[C@H]1C[C@@H]1C(=O)Nc1nccc2nn(Cc3cn4cc(C5CC5)ccc4n3)cc12` (racemic) [Example 579, rac-(1S*,2S*)-2-(5-chloro-2-cyanophenyl)-N-(2-((6-cyclopropylimidazo[1,2-a]pyridin-2-yl)methyl)-2H-pyrazolo[4,3-c]pyridin-4-yl)cyclopropane-1-carboxamide], the EC50 is under 1 nM.

With `Nc1ccc(Cl)cc1[C@H]1C[C@@H]1C(=O)Nc1nccc2nn(Cc3cn4cc(C5CC5)ccc4n3)cc12` (racemic) [Example 585, rac-(1S*,2S*)-2-(2-amino-5-chlorophenyl)-N-(2-((6-cyclopropylimidazo[1,2-a]pyridin-2-yl)methyl)-2H-pyrazolo[4,3-c]pyridin-4-yl)cyclopropane-1-carboxamide], the EC50 fell in the range of 10 to 100 nM.
